Data published in US6919379B2, “Compounds useful in reflux disease” (AstraZeneca AB, priority 2001, dated 2005).

Structure (SMILES)	melting point
NC[C@@H](F)CS(=O)O	136 to 138 °C
NC[C@H](O)CS(=O)O [Example 1, (2S)-(3-Amino-2-hydroxypropyl)sulphinic acid]	206 to 208 °C
NC[C@@H](O)CS(=O)O [Example 2, (2R)-(3-Amino-2-hydroxypropyl)sulphinic acid]	210 °C
